# Data from patent US20160175401A1, “COMPOITIONS AND METHODS FOR MODULATING THERMOGENESIS USING PTH-RELATED AND EGF-RELATED COMPOUNDS” (DANA-FARBER CANCER INSTITUTE INC., priority 2013, published 2016).
# What was measured:
# PTH1R = molecular target: T1, PTH1R (Homo sapiens, UniProt Q03431); conditions: Dean et al., Hoare et al.; cited from earlier work
# T1 sequence (Q03431 27-593): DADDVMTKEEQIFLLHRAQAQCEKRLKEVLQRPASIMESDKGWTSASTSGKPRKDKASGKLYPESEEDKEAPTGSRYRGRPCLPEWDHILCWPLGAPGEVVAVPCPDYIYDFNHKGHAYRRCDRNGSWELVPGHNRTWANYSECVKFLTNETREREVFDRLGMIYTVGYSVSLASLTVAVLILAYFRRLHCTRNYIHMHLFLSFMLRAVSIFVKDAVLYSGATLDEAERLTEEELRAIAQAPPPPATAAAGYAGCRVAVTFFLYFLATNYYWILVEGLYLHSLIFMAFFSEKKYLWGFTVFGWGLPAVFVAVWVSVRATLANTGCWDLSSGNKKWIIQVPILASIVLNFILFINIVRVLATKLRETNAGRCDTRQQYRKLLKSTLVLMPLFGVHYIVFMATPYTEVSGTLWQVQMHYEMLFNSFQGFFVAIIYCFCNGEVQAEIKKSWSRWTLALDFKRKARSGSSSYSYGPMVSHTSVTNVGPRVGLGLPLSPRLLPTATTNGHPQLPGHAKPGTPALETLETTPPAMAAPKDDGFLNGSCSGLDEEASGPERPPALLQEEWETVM
# primary white adipocytes = test: Cellular oxygen consumption rate (XF24 Extracellular Flux Analyzer, Seahorse) of primary adipocytes; type: cell-based, mouse; conditions: for uncoupled respiration and maximal respiration potential: 24 hour treatment, norepinephrine 100 nM, peptides 100 ng/mL, SeaHorse (FIG. 8D)
# Protocol: The cellular oxygen consumption rate (OCR) of primary adipocytes was determined using an XF24 Extracellular Flux Analyzer (Seahorse Bioscience). […] Twenty-four hours later, adipocyte culture medium was changed to DMEM lacking NaHCO3 but containing 10 mM glucose, 1 mM pyruvate and the treatment chemicals. The uncoupled and maximal OCRs were determined using […] (carbonyl cyanide p-trifluoromethoxyphenylhydrazone), respectively. Complex-1-dependent respiration was inhibited with 3 μM rotenone. Ex vivo tissue respiration was measured using a Clark electrode (Strathkelvin Instruments) as described in Cohen et al. (2014) Cell 156:304-316. Freshly isolated tissues were briefly minced and transferred to the electrode chamber containing a respiration buffer consisting of 1×DPBS (Delbecco's phosphate-buffered saline), 2% BSA, 25 mM glucose and 1 mM pyruvate. Oxygen consumption values were normalized to tissue weight.
# UCP1 = UCP1 protein levels by western blotting in primary adipocytes; type: cell-based, mouse
# Protocol: Cells were homogenized in a lysis buffer containing 50 mM Tris (pH 7.4), 500 mM NaCl, 1% NP40, 20% glycerol, 5 mM EDTA and 1 mM PMSF, supplemented with protease and phosphatase inhibitor cocktails (Roche). The homogenates were centrifuges at 13,000 rpm for 10 min and the supernatants were used as whole cell lysates. Protein concentration was determined by Bio-Rad Bradford assay and 50 μg of proteins were used in each SDS-PAGE run. PVDF membrane was blotted with UCP1 antibody (Abeam) in TBS containing 0.05% Tween and 5% BSA. For secondary antibody incubation, TBS-T containing 5% milk was used. ECL western blotting substrates from Pierce were used for visualization of the results.
# Cells were homogenized in a lysis buffer containing 50 mMTris (pH 7.4), 500 mM NaCl, 1% NP40, 20% glycerol, 5 mM EDTA and 1 mM phenylmethylsulphonyl fluoride (PMSF) supplemented with protease and phosphatase inhibitor cocktails (Roche). The homogenates were centrifuged at 13,000 r.p.m. for 10 min, and the supernatants were used as whole-cell lysates. Protein concentration was determined by Bio-Rad protein assay, and […] protein lysate was separated in each SDS-PAGE lane. The separated proteins were transferred to a polyvinylidene difluoride (PVDF)membrane, which was blotted with antibodies in TBS containing 0.05% Tween (TBS-T) and 5% BSA. For secondary antibody incubation. TBS-T containing 5% milk was used. Enhanced chemiluminescence (ECL) western blotting substrates (Pierce) were used for visualization of the results.
substance,measurement,setting,value
"PTH (1-34): Synthetic peptide rat PTH(1-34) (Ala32-Phe65; Catalog No. H-5460), purchased from Bachem",binding in the absence of G protein coupling (RO conformational state),PTH1R,only slightly decreased
same,"oxygen consumption, including basal, uncoupled and maximal respiration","primary white adipocytes; 100 nM NE, 100 ng ml^−1 PTHrP or PTH, 24 h (FIG. 23C)",significantly raised oxygen consumption
same,uncoupled respiration and maximal respiration potential,primary white adipocytes,significantly elevate
same,uncoupled respiration and maximal respiration potential,primary white adipocytes; listed as PTH,powerful inducers
same,UCP1 protein levels,"UCP1; 100 nM NE, 100 ng ml^−1 PTHrP or PTH, 24 h, primary white and brown adipocytes (FIG. 23A-23B)",comparably increased UCP1 protein levels
same,UCP1 protein levels,"UCP1; 24 hour treatment, norepinephrine 100 nM, peptides 100 ng/mL, western blotting (FIG. 8D)",significantly increased
